According to US20250177359A1, “COMPOUNDS FOR USE IN THE TREATMENT OF CANCER AND INFLAMMATORY CONDITIONS” (priority 2022, published 2025):
Read-outs that look alike come from different tables or passages of the source.

Key:
TNKS1 = molecular target: T1, TNKS1 (Homo sapiens, UniProt O95271); test: Activity assay measuring NAD+ consumption, TNKS1; assay type: biochemical; details: Table 4
T1 sequence (O95271 1-1327): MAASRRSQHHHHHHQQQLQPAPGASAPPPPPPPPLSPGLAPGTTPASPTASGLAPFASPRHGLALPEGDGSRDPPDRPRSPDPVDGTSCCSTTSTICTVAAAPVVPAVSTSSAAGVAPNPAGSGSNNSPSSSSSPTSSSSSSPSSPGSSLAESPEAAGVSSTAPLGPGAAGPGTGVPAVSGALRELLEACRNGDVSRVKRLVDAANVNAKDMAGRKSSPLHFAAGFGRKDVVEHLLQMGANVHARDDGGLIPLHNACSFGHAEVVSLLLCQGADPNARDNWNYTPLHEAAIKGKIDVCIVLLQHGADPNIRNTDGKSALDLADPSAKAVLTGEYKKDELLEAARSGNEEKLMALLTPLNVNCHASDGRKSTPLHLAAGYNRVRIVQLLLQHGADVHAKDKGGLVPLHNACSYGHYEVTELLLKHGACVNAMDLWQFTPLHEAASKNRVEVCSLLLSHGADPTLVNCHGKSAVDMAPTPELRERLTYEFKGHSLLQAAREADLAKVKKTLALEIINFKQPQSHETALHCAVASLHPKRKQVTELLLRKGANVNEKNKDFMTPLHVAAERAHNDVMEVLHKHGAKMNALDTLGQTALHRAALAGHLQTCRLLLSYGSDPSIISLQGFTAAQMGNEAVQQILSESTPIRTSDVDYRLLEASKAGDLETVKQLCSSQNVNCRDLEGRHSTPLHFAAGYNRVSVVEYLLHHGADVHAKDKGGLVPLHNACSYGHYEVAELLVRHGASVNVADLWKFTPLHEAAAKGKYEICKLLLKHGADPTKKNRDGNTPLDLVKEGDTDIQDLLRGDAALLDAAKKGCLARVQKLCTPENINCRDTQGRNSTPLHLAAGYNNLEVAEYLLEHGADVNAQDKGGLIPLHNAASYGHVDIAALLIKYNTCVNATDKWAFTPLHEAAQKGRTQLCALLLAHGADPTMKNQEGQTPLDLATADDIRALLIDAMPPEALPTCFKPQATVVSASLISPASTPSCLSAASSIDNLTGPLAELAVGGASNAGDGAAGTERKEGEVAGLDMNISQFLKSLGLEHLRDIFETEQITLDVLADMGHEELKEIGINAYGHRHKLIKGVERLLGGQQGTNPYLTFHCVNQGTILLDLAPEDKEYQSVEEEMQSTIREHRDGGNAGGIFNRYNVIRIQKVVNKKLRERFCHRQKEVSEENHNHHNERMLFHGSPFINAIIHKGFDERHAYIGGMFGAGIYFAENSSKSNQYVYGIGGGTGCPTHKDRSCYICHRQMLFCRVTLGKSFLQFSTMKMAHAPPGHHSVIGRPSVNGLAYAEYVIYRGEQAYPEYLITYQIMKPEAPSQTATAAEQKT
Method: All starting materials, reagents, and solvents were purchased from common commercial suppliers and were used as such without further purification. […] Organic solutions were dried over anhydrous Na2SO4 and concentrated with rotary evaporator at low pressure. All the reactions were routinely checked by thin-layer chromatography (TLC) on silica gel 60F254 (Merck) and visualized by using UV and iodine. Flash chromatography separations were carried out on Merck silica gel 60 (mesh 230-400) or by using automated Buchi Reveleris X2-UV with column FP Ecoflex Si 12 g. Yields were of purified products and were not optimized. ^1HNMR spectra were recorded at 400 MHz (Bruker Avance DRX-400), while ^13CNMR spectra were recorded at 101 MHz (Bruker Avance DRX-400). Chemical shifts are given in ppm (δ) relative to TMS. […] Mating constant (J) are reported in Hz. The purity of the tested compounds was evaluated by HPLC analysis using Jasco LC-4000 instrument equipped with a UV-Visible Diode Array Jasco-MD4015 (Jasco Corporation, Tokyo, Japan), and XTerra MS C18 column, 5 μm×4.6 mm×150 mm (Waters Corporation, Massachusetts, USA). Chromatograms were analyzed by ChromNAV2.0 Chromatography Data System software. […] The peak retention time (ret. time) is given in minutes. […] 1-Isobutoxy-4-methoxy-2-nitrobenzene (113). Isobutyl alcohol (0.6 mL, 6.43 mmol) was added, under nitrogen atmosphere at 0° C., to a suspension of NaH (0.26 g, 6.43 mmol) in dry DMF. After 15 minutes, 1-fluoro-4-methoxy-2-nitrobenzene 112 (1 g, 5.84 mmol) was also added and the reaction mixture was stirred at 80° C. for 4 h. […] (2-Isobutoxy-5-methoxyphenyl)amine (114). Zn (1.57 g, 24 mmol) and NH4C1 (2.45 g, 40 mmol) were added to a solution of 113 (0.46 g, 2 mmol) in acetone/H2O (50 mL, ratio 5:1). The reaction mixture was stirred at 60° C. for 3 h and, then, it was filtered over celite. […] N-(2,5-diethoxyphenyl)thiourea (55). […] N-(2-isobutoxy-5-methoxyphenyl)thiourea (115). […] A solution of Br2 (0.2 mL, 3.3 mmol) in CHCl3 (5 mL) was slowly added to a suspension of 45 (0.6 g, 3.3 mmol) in CHCl3 (13 mL), at 0° C. […]

PARP2 = molecular target: T2, PARP2 (Homo sapiens, UniProt Q9UGN5); test: biochemical; assay type: biochemical
T2 construct: made in house
Method: All starting materials, reagents, and solvents were purchased from common commercial suppliers and were used as such without further purification. […] Organic solutions were dried over anhydrous Na2SO4 and concentrated with rotary evaporator at low pressure. All the reactions were routinely checked by thin-layer chromatography (TLC) on silica gel 60F254 (Merck) and visualized by using UV and iodine. Flash chromatography separations were carried out on Merck silica gel 60 (mesh 230-400) or by using automated Buchi Reveleris X2-UV with column FP Ecoflex Si 12 g. Yields were of purified products and were not optimized. ^1HNMR spectra were recorded at 400 MHz (Bruker Avance DRX-400), while ^13CNMR spectra were recorded at 101 MHz (Bruker Avance DRX-400). Chemical shifts are given in ppm (δ) relative to TMS. […] Mating constant (J) are reported in Hz. The purity of the tested compounds was evaluated by HPLC analysis using Jasco LC-4000 instrument equipped with a UV-Visible Diode Array Jasco-MD4015 (Jasco Corporation, Tokyo, Japan), and XTerra MS C18 column, 5 μm×4.6 mm×150 mm (Waters Corporation, Massachusetts, USA). Chromatograms were analyzed by ChromNAV2.0 Chromatography Data System software. […] The peak retention time (ret. time) is given in minutes. […] 1-Isobutoxy-4-methoxy-2-nitrobenzene (113). Isobutyl alcohol (0.6 mL, 6.43 mmol) was added, under nitrogen atmosphere at 0° C., to a suspension of NaH (0.26 g, 6.43 mmol) in dry DMF. After 15 minutes, 1-fluoro-4-methoxy-2-nitrobenzene 112 (1 g, 5.84 mmol) was also added and the reaction mixture was stirred at 80° C. for 4 h. […] (2-Isobutoxy-5-methoxyphenyl)amine (114). Zn (1.57 g, 24 mmol) and NH4C1 (2.45 g, 40 mmol) were added to a solution of 113 (0.46 g, 2 mmol) in acetone/H2O (50 mL, ratio 5:1). The reaction mixture was stirred at 60° C. for 3 h and, then, it was filtered over celite. […] N-(2,5-diethoxyphenyl)thiourea (55). […] N-(2-isobutoxy-5-methoxyphenyl)thiourea (115). […] A solution of Br2 (0.2 mL, 3.3 mmol) in CHCl3 (5 mL) was slowly added to a suspension of 45 (0.6 g, 3.3 mmol) in CHCl3 (13 mL), at 0° C. The reaction mixture was stirred at r.t. for 4 h and, then, a 10% solution of Na2SO3 in water was added to the mixture. […] 4,7-Diethoxy-1,3-benzothiazol-2-amine (66). […] 4-Isobutoxy-7-methoxy-1,3-benzothiazol-2-amine (116). […] Hydrazine hydrate (0.23 mL, 4.77 mmol) and CH3COOH (0.12 mL, 2.1 mmol) were added to a suspension of 56 (0.29 g, 1.59 mmol) in ethylene glycol (8 mL), and the reaction mixture was stirred for 24 h at 125° C. […] 6-Ethyl-2-hydrazino-1,3-benzothiazole (69). […] 6-Ispropyl-2-hydrazino-1,3-benzothiazole (70). […] 2-Hydrazino-4,7-dimethoxy-1,3-benzothiazole (73). […] 2-Hydrazino-5,7-dimethoxy-1,3-benzothiazole (75). […] 2-Hydrazino-4,7-Diethoxy-1,3-benzothiazole (77). […] 2-Hydrazino-5-methyl[1,3]thiazolo[5,4-b]pyridine (100). […] A solution of 67 (0.13 g, 0.65 mmol) in formic acid (5 mL) was refluxed for 10 h. The reaction mixture was then poured into ice/water and the pH was neutralized using a saturated solution of NaHCO3.

T2 sequence (Q9UGN5 whole entry): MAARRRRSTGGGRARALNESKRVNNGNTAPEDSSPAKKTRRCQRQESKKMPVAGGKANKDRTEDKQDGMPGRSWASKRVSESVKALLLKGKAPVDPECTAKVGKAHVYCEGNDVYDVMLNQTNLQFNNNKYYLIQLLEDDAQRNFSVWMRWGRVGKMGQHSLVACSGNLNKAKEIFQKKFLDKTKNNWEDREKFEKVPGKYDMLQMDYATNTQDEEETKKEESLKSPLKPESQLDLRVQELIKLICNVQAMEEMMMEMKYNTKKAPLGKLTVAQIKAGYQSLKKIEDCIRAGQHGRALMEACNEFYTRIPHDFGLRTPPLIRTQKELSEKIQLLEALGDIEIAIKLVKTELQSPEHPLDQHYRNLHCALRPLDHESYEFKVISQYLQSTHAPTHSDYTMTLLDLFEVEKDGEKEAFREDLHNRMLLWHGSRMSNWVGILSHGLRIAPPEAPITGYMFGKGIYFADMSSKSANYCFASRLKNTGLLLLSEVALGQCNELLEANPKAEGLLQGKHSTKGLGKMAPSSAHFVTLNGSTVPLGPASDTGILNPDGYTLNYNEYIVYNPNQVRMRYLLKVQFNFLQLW

SMILES | IC50 (TNKS1) [nM] | IC50 (PARP2) [nM] | PARP2 pIC50 ± SEM (PARP2) | IC50 (PARP2; NAD+ consumption assay, > less than 50% inhibition at highest concentration, >> no inhibition) [nM] | IC50 (PARP2; NAD+ consumption assay) [nM]
Oc1ccc2c(c1)sc1nncn12 [Compound 10] | 1600 | 44 | (7.44 ± 0.12) | – | –
Cc1ccc2c(c1)sc1nnc(N)n12 [Compound 22, 7-Methyl[1,2,4]triazolo[3,4-b][1,3]benzothiazol-3-amine] | 2100 | – | – | – | –
COc1ccc(OC)c2c1sc1nnc(N)n12 [Compound 28, 5,8-Dimethoxy[1,2,4]triazolo[3,4-b][1,3]benzothiazol-3-amine] | 5400 | – | – | 10000 | –
Nc1nnc2sc3cc(O)ccc3n12 [Compound 109, 3-Amino[1,2,4]triazolo[3,4-b][1,3]benzothiazol-7-ol] | – | – | – | – | 5 to 10
